Structures can show the parent of a compound that is named as a salt.
Row | melting point | Compound
1 | 139 to 141 °C | CC(C)[C@H]1COCc2nc3c(N)nc4ccc(OCc5ccccc5)cc4c3n21 [Example 19, (11S)-2-(Benzyloxy)-11-isopropyl-10,11-dihydro-8H-[1,4]oxazino[4′,3′:1,2]imidazo[4,5-c]quinolin-6-amine]
2 | 245 to 247 °C | C[C@H]1COCc2nc3c(N)nc4cc(CCC(=O)N5CCOCC5)ccc4c3n21 [Example 63, (11S)-11-Methyl-3-(3-morpholin-4-yl-3-oxopropyl)-10,11-dihydro-8H-[1,4]oxazino[4′,3′:1,2]imidazo[4,5-c]quinolin-6-amine]
3 | 134 to 137 °C | Nc1nc2ccccc2c2c1nc1n2[C@@H](COCc2ccc(F)cc2)COC1 [Example 45, (11S)-11-{[(4-Fluorobenzyl)oxy]methyl}-10,11-dihydro-8H-[1,4]oxazino[4′,3′:1,2]imidazo[4,5-c]quinolin-6-amine]
4 | 170 to 177 °C | Nc1nc2ccccc2c2c1nc1n2[C@H](Cc2ccccc2)COC1 (hydrate or solvate) [Example 29]
5 | 284 to 286 °C | Nc1nc2ccccc2c2c1nc1n2[C@@H](c2ccccc2)COC1 [Example 9, (11S)-11-Phenyl-10,11-dihydro-8H-[1,4]oxazino[4′,3′:1,2]imidazo[4,5-c]quinolin-6-amine]
6 | 230 to 232 °C | Nc1nc2ccccc2c2c1nc1n2[C@@H](CCl)COC1 [Example 36, (11R)-11-(Chloromethyl)-10,11-dihydro-8H-[1,4]oxazino[4′,3′:1,2]imidazo[4,5-c]quinolin-6-amine]
7 | 284 to 286 °C | Nc1nc2ccccc2c2c1nc1n2[C@H](c2ccccc2)COC1 [Example 28]
8 | 247 to 248 °C | CC1CCOCc2nc3c(N)nc4cc(Br)ccc4c3n21 (stereo not shown) [Example 22, 3-Bromo-12-methyl-11,12-dihydro-8H,10H-[1,4]oxazepino[4′,3′:1,2]imidazo[4,5-c]quinolin-6-amine]
9 | 158 to 160 °C | CC(C)[C@H]1COCc2nc3c(N)nc4c(c3n21)CCCC4 [Example 2, (11S)-11-Isopropyl-2,3,4,8,10,11-hexahydro-1H-[1,4]oxazino[4′,3′:1,2]imidazo[4,5-c]quinolin-6-amine]
10 | 189 to 190.8 °C | C[C@@H](OCc1ccccc1)[C@H]1COCc2nc3c(N)nc4ccccc4c3n21 [Example 38, (11R)-11-[(1R)-1-(benzyloxy)ethyl]-10,11-dihydro-8H-[1,4]oxazino[4′,3′:1,2]imidazo[4,5-c]quinolin-6-amine]
11 | 216 to 217 °C | CC(C)(O)[C@H]1COCc2nc3c(N)nc4ccccc4c3n21 [Example 13, 2-[(11R)-6-Amino-10,11-dihydro-8H-[1,4]oxazino[4′,3′:1,2]imidazo[4,5-c]quinolin-11-yl]propan-2-ol]
12 | 258 to 261 °C | C[C@@H]1CN(S(C)(=O)=O)Cc2nc3c(N)nc4ccccc4c3n21 [Example 32, (11R)-11-Methyl-9-(methylsulfonyl)-8,9,10,11-tetrahydropyrazino[1′,2′:1,2]imidazo[4,5-c]quinolin-6-amine]
13 | 280 to 282 °C | C[C@@H]1COCc2nc3c(N)nc4ccccc4c3n21 [Example 26]
14 | 227 to 229 °C | CC(C)[C@H]1COCc2nc3c(N)nc4cc(OCc5ccccc5)ccc4c3n21 [Example 3, (11S)-3-(Benzyloxy)-11-isopropyl-10,11-dihydro-8H-[1,4]oxazino[4′,3′:1,2]imidazo[4,5-c]quinolin-6-amine]
15 | 240 to 242 °C | C[C@H]1COCc2nc3c(N)nc4cccnc4c3n21 [Example 15, (11S)-11-Methyl-10,11-dihydro-8H-[1,4]oxazino[4′,3′:1,2]imidazo[4,5-c][1,5]naphthyridin-6-amine]
16 | 219 to 221 °C | CC(C)(F)[C@H]1COCc2nc3c(N)nc4cc(O)ccc4c3n21 [Example 17, (11R)-6-Amino-11-(1-fluoro-1-methylethyl)-10,11-dihydro-8H-[1,4]oxazino[4′,3′:1,2]imidazo[4,5-c]quinolin-3-ol]
17 | 261 to 262 °C | Nc1nc2ccccc2c2c1nc1n2[C@@H](c2cc(-c3ccc(F)cc3)no2)COC1 [Example 50, (11R)-11-[3-(4-Fluorophenyl)isoxazol-5-yl]-10,11-dihydro-8H-[1,4]oxazino[4′,3′:1,2]imidazo[4,5-c]quinolin-6-amine]
18 | 170 to 177 °C | Nc1nc2ccccc2c2c1nc1n2[C@@H](Cc2ccccc2)COC1 [Example 10, (11S)-11-Benzyl-10,11-dihydro-8H-[1,4]oxazino[4′,3′:1,2]imidazo[4,5-c]quinolin-6-amine]
19 | 248 to 249 °C | CC(C)[C@@H]1COCc2nc3c(N)nc4ccccc4c3n21 [Example 25]
20 | 242 to 246 °C | CC(C)(O)[C@H]1COCc2nc3c(N)nc4cccnc4c3n21 [Example 33, 2-[(11R)-6-Amino-10,11-dihydro-8H-[1,4]oxazino[4′,3′:1,2]imidazo[4,5-c]-1,5-naphthyridin-11-yl]propan-2-ol]

Row | melting point | Compound
21 | 235 to 237 °C | C[C@H]1COCc2nc3c(N)nc4cc(CCC(=O)N(C)C)ccc4c3n21 [Example 64, 3-[(11S)-6-Amino-11-methyl-10,11-dihydro-8H-[1,4]oxazino[4′,3′:1,2]imidazo[4,5-c]quinolin-3-yl]-N,N-dimethylpropanamide]
22 | 184 to 186 °C | C#CCOc1ccc2nc(N)c3nc4n(c3c2c1)[C@@H](C)COC4 [Example 51, (11S)-11-Methyl-2-(prop-2-ynyloxy)-10,11-dihydro-8H-[1,4]oxazino[4′,3′:1,2]imidazo[4,5-c]quinolin-6-amine]
23 | 280 to 282 °C | C[C@H]1COCc2nc3c(N)nc4ccccc4c3n21 [Example 5, (11S)-11-Methyl-10,11-dihydro-8H-[1,4]oxazino[4′,3′:1,2]imidazo[4,5-c]quinolin-6-amine]
24 | 195.5 to 197 °C | CC(C)(F)[C@H]1COCc2nc3c(N)nc4c(c3n21)CCCC4 [Example 12, (11R)-11-(1-Fluoro-1-methylethyl)-2,3,4,8,10,11-hexahydro-1H-[1,4]oxazino[4′,3′:1,2]imidazo[4,5-c]quinolin-6-amine]
25 | 240 to 242 °C | C[C@H]1COCc2nc3c(N)nc4ccc(OCc5cscn5)cc4c3n21 [Example 54, (11S)-11-Methyl-2-(1,3-thiazol-4-ylmethoxy)-10,11-dihydro-8H-[1,4]oxazino[4′,3′:1,2]imidazo[4,5-c]quinolin-6-amine]
26 | 209 to 211 °C | C[C@H]1COCc2nc3c(N)nc4c(c3n21)CCCC4 [Example 6, (11S)-11-Methyl-2,3,4,8,10,11-hexahydro-1H-[1,4]oxazino[4′,3′:1,2]imidazo[4,5-c]quinolin-6-amine]
27 | 194 to 196 °C | CC(C)[C@H]1COCc2nc3c(N)nc4cccnc4c3n21 [Example 14, (11S)-11-Isopropyl-10,11-dihydro-8H-[1,4]oxazino[4′,3′:1,2]imidazo[4,5-c][1,5]naphthyridin-6-amine]
28 | 100 to 120 °C | CC1COCc2nc3c(N)nc4ccc(OCc5ccccc5)cc4c3n21 (stereo in doubt) [Example 18, (11R)-2-(Benzyloxy)-11-methyl-10,11-dihydro-8H-[1,4]oxazino[4′,3′:1,2]imidazo[4,5-c]quinolin-6-amine]
29 | 264 to 267 °C | Cc1nc(N)c2nc3n(c2c1C)[C@@H](C)COC3 [Example 44, (4S)-4,6,7-Trimethyl-3,4-dihydro-1H-pyrido[3′,4′:4,5]imidazo[2,1-c][1,4]oxazin-9-amine]
30 | 218 to 219 °C | CC(C)(O)[C@@H]1COCc2nc3c(N)nc4ccccc4c3n21 (as salt: hydrochloride) [Example 31]
31 | > 250 °C | C[C@H]1COCc2nc3c(N)nc4cc(/C=C/C(=O)N5CCOCC5)ccc4c3n21 [Example 62, (11S)-11-Methyl-3-[(1E)-3-morpholin-4-yl-3-oxoprop-1-enyl]-10,11-dihydro-8H-[1,4]oxazino[4′,3′:1,2]imidazo[4,5-c]quinolin-6-amine]
32 | 210 to 215 °C | CC(C)[C@H]1COCc2nc3c(N)nc4cc(O)ccc4c3n21 [Example 4, (11S)-6-Amino-11-isopropyl-10,11-dihydro-8H-[1,4]oxazino[4′,3′:1,2]imidazo[4,5-c]quinolin-3-ol]
33 | 228 to 230 °C | Nc1nc2ccccc2c2c1nc1n2[C@@H](C2CCCCC2)COC1 [Example 47, (11S)-11-Cyclohexyl-10,11-dihydro-8H-[1,4]oxazino[4′,3′:1,2]imidazo[4,5-c]quinolin-6-amine]
34 | 86.6 to 89.7 °C | C[C@H](OCc1ccccc1)[C@H]1COCc2nc3c(N)nc4ccccc4c3n21 [Example 40, (11R)-11-[(1S)-1-(benzyloxy)ethyl]-10,11-dihydro-8H-[1,4]oxazino[4′,3′:1,2]imidazo[4,5-c]quinolin-6-amine]
35 | 170 to 172 °C | Nc1nc2ccccc2c2c1nc1n2[C@@H](Cc2ccc(F)cc2)COC1 [Example 46, (11S)-11-(4-Fluorobenzyl)-10,11-dihydro-8H-[1,4]oxazino[4′,3′:1,2]imidazo[4,5-c]quinolin-6-amine]
36 | 192 to 194 °C | CC(C)(F)[C@H]1COCc2nc3c(N)nc4cccnc4c3n21 [Example 16, (11R)-11-(1-Fluoro-1-methylethyl)-10,11-dihydro-8H-[1,4]oxazino[4′,3′:1,2]imidazo[4,5-c][1,5]naphthyridin-6-amine]
37 | 240.4 to 243.4 °C | Nc1nc2ccccc2c2c1nc1n2[C@@H](C2CCOCC2)COC1 [Example 43, (11S)-11-Tetrahydro-2H-pyran-4-yl-10,11-dihydro-8H-[1,4]oxazino[4′,3′:1,2]imidazo[4,5-c]quinolin-6-amine]
38 | 194 to 195 °C | CC(C)[C@H]1COCc2nc3c(N)nc4cc(OCCN5CCOCC5)ccc4c3n21 [Example 59, (11S)-11-Isopropyl-3-(2-morpholin-4-ylethoxy)-10,11-dihydro-8H-[1,4]oxazino[4′,3′:1,2]imidazo[4,5-c]quinolin-6-amine]
39 | 242 to 244 °C | CC(C)(F)[C@@H]1COCc2nc3c(N)nc4ccccc4c3n21 [Example 30]
40 | > 250 °C | C[C@H]1COCc2nc3c(N)nc4cc(O)ccc4c3n21 [Example 8, (11S)-6-Amino-11-methyl-10,11-dihydro-8H-[1,4]oxazino[4′,3′:1,2]imidazo[4,5-c]quinolin-3-ol]
